# Values of other authors, collected in patent publication US20130053541A1, “METHODS FOR DISCOVERING MOLECULES THAT BIND TO PROTEINS” (LYNNTECH, INC., priority 2011, published 2013).
# pIC50, pKi: −log10 of the molar value.
# Tests used:
# [1] = target: T1, ERRgamma ligand-binding domain (LBD) (Homo sapiens, UniProt P62508); settings: cited from earlier work; for interaction with ERRgamma: in the absence of ligand
# T1 sequence (P62508 233-457 limits assumed): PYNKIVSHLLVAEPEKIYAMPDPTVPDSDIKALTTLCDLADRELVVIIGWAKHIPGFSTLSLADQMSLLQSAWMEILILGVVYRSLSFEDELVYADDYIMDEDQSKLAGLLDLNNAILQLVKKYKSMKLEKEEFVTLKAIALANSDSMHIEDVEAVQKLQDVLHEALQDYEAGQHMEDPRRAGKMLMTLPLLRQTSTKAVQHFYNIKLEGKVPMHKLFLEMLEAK
# ERα [2] = target: T2, ERα (Homo sapiens, UniProt P03372); settings: cited from earlier work
# T2 sequence (P03372 1-595): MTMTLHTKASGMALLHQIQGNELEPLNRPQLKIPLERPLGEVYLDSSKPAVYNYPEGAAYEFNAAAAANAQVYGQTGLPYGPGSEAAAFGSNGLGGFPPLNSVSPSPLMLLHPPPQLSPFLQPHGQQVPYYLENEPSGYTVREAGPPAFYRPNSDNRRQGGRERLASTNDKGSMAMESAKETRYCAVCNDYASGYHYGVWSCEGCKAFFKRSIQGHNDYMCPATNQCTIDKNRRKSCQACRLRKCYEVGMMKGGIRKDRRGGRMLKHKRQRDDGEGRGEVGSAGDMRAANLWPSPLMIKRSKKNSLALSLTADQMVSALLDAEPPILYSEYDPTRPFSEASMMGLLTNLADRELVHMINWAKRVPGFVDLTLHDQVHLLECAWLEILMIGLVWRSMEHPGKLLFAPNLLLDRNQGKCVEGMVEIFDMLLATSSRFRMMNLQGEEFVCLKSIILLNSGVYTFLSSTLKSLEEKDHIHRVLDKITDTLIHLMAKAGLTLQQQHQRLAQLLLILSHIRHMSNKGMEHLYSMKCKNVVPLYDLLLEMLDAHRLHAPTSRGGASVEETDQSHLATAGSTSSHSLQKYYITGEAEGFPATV
# [3] = cited from earlier work
# mAb-E2 = settings: cited from earlier work
# [4] = target: T3, (Homo sapiens, UniProt P11474); settings: phage display peptides; cited from earlier work
# T3 sequence (P11474 1-423): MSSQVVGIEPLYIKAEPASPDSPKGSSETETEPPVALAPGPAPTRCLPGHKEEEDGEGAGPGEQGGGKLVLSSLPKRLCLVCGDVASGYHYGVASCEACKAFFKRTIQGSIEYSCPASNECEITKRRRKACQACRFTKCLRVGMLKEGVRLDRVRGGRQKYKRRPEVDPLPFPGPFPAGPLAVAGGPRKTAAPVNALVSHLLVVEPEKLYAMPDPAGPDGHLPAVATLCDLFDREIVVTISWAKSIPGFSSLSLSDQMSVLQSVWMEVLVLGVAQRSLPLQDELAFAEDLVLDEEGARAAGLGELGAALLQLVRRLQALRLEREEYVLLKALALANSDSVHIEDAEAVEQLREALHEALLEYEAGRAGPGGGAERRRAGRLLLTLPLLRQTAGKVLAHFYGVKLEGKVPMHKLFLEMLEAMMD
# ERβ = ERβ (Homo sapiens, UniProt Q92731); settings: cited from earlier work; for pKi: inhibition of estrogen receptor/coactivator recognition, read-out: K, values ERβ; for ERβ/ERα: ratio of K values
# ERα [5] = target: T2, ERα; settings: inhibition of estrogen receptor/coactivator recognition, cited from earlier work; for pKi: read-out: K, values ERα
# Chain of ERβ (Q92731 whole entry, species assumed): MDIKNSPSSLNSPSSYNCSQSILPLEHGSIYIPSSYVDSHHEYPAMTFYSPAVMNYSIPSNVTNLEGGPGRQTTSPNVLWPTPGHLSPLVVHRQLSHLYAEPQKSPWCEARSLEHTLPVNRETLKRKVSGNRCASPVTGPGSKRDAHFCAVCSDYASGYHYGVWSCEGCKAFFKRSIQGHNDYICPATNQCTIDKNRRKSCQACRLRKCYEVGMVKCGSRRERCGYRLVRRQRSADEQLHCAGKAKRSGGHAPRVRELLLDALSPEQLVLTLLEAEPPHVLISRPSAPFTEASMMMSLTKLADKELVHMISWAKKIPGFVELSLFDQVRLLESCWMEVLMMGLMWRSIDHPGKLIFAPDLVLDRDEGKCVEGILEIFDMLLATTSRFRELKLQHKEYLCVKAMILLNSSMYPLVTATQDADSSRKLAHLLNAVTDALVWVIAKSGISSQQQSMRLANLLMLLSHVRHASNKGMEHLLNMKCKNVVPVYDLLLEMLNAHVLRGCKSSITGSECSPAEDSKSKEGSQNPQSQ
substance,measurement,setting,value
GPQTPQAQQKSLLQQLLTE [SRC1-4],interaction with ERRgamma,[1],interacted most strongly
VSWFFE [EMP-1],pIC50,ERα [2],4.00
same,estrogenic activity in vivo,[3],possess estrogenic activity in vivo
same,pIC50,mAb-E2,8.22
PSEDRGELWRLLSVTERQN [Peptide L3-09],inhibition of transcriptional activity of EPPα,[4],reducing the transcriptional activity of EPPα to basal levels
4-hydroxytamoxifen,displacement of fluorescein-labeled PGC1alpha peptide from the ERRgamma LBD,[1]; increasing concentrations,displaced
"LEQLL [Structure 1, H-Leu-Glu-Gln-Leu-Leu-OH]",pKi,ERβ,3.70
same,"K, values ERα",ERα [5],not active
Mannosylacetyl-Leu-Glu-Gln-Leu-Leu-OH (Mannosylacetyl-LEQLL-OH) [Structure 2],pKi,ERβ,< 3.70
same,pKi,ERα [5],< 3.70
KHKILHRLLQDSS [Structure 4],pKi,ERβ,5.16
same,ERβ/ERα,ERβ,18.1
same,pKi,ERα [5],6.42
VSWFFED [EMP-2],pIC50,ERα [2],4.00
same,estrogenic activity in vivo,[3],possess estrogenic activity in vivo
same,pIC50,mAb-E2,7.52
LPYEGSLLLKLLRAPVEEV [Peptide D22],interaction with ERRgamma,[1],interacted most strongly
MSVQYPELQRLLMAGSTEL [Peptide L3-28],inhibition of transcriptional activity of EPPα,[4],reducing the transcriptional activity of EPPα to basal levels
IPLSGSELSRLLLTEMPEL [Peptide L3-80],inhibition of transcriptional activity of EPPα,[4],reducing the transcriptional activity of EPPα to basal levels
QAQQKSLLQQLLTE [Structure 10],pKi,ERβ,5.96
same,ERβ/ERα,ERβ,2.4
same,pKi,ERα [5],6.35
KKILHRLLQ [Structure 3],pKi,ERβ,5.55
same,ERβ/ERα,ERβ,16.5
same,pKi,ERα [5],6.77
EAEEPSLLKKLLLAPANTQ [PGC1alpha],interaction with ERRgamma,[1],interacted most strongly
LTERHKILHRLLQEGSPSD [Structure 9],pKi,ERβ,5.28
same,ERβ/ERα,ERβ,7.4
same,pKi,ERα [5],6.15
